Reference: US9492472B2, “Compositions and methods of treating cancer” (Case Western Reserve University, priority 2009, dated 2016)
Peptide text beside a SMILES is read from it.

Legend:
[1] = test system: A7 cells
[2] = Cell penetrating capacity of the pentapeptide; format: cell-based; conditions: cells incubated with the peptide >1 hr (n.s.)
[3] = reported earlier; cited from earlier work

CC[C@H](C)[C@H](NC(=O)[C@H](CC(C)C)NC(=O)[C@H](Cc1ccccc1)NC(=O)[C@H](CO)NC(=O)[C@@H](NC(=O)[C@H](CC(C)C)NC(=O)[C@H](CC(C)C)NC(=O)[C@@H](NC(=O)[C@@H](NC(=O)[C@@H]1CCCN1C(=O)[C@@H]1CCCN1C(=O)[C@H](CCCCN)NC(=O)[C@@H]1CCCN1C(=O)[C@H](CCCNC(=N)N)NC(=O)[C@H](CCCCN)NC(=O)[C@@H](N)CCCCN)C(C)C)[C@@H](C)CC)[C@@H](C)CC)C(=O)N[C@@H](Cc1ccccc1)C(=O)N[C@@H](CC(C)C)C(=O)N[C@H](C(=O)N[C@H](C(=O)NCC(=O)O)C(C)C)[C@@H](C)CC [KKRPK-PrP-GPI-PSS] (H-KKRPKPPVILLISFLIFLIVG-OH)
toxicity [1]: not toxic

KKRPK (listed as Homo sapiens) [cell penetrating pentapeptide, transport moiety]
entry into cells without Ca2+ [2]: can enter the cells
cell penetrating capacity [3]: has cell penetrating capacity
